# Assays:
# Staphylococcus aureus [1] = assay: Antibacterial activity against norfloxacin resistant Staphylococcus aureus 1199 assessed as bacterial growth inhibition incubated for 24 hrs by resazurin based broth microdilution method; type: functional
# Staphylococcus aureus [2] = assay: Antibacterial activity against norfloxacin resistant Staphylococcus aureus 1199B overexpressing NorA assessed as bacterial growth inhibition incubated for 24 hrs by resazurin based broth microdilution method; type: functional
# Staphylococcus aureus [3] = assay: Antibacterial activity against Staphylococcus aureus IS-58 overexpressing TetK efflux protein assessed as bacterial growth inhibition incubated for 24 hrs by resazurin based microdilution assay; type: functional
# Staphylococcus aureus [4] = assay: Antibacterial activity against Staphylococcus aureus RN4220 overexpressing […] efflux protein assessed as bacterial growth inhibition incubated for 24 hrs by resazurin based microdilution assay; type: functional
# Staphylococcus aureus [5] = assay: Antibacterial activity against wild type Staphylococcus aureus ATCC 25923 assessed as bacterial growth inhibition incubated for 24 hrs by resazurin based microdilution assay; type: functional
# Staphylococcus aureus [6] = assay: Antibacterial activity against Staphylococcus aureus K4414 overexpressing qacA/B gene assessed as bacterial growth inhibition incubated for 24 hrs by resazurin based microdilution assay; type: functional
# Staphylococcus aureus [7] = assay: Antibacterial activity against Staphylococcus aureus K4100 overexpressing qacC gene assessed as bacterial growth inhibition incubated for 24 hrs by resazurin based microdilution assay; type: functional
# Staphylococcus aureus [8] = assay: Antibacterial activity against Staphylococcus aureus 1199B overexpressing NorA efflux protein assessed as bacterial growth inhibition incubated for 24 hrs by resazurin based microdilution assay; type: functional
# Staphylococcus aureus [9] = assay: Antibacterial activity against Staphylococcus aureus K2068 overexpressing mepA gene assessed as bacterial growth inhibition incubated for 24 hrs by resazurin based microdilution assay; type: functional
# Staphylococcus aureus [10] = assay: Synergistic antimicrobial activity against Staphylococcus aureus 1199B overexpressing NorA efflux pump assessed as fractional inhibitory concentration index incubated for 24 hrs by checkerboard method; type: functional
# Staphylococcus aureus [11] = assay: Synergistic antimicrobial activity against Staphylococcus aureus 1199B overexpressing NorA efflux pump assessed as reduction in norfloxacin MIC incubated for 24 hrs by MTT colorimetric assay (Rvb= […]); type: functional
# [12] = molecular target: T1, Quinolone resistance protein NorA (Staphylococcus aureus) (UniProt P0A0J7); assay: Inhibition of NorA efflux pump in Staphylococcus aureus 1199B overexpressing NorA efflux pump assessed as norfloxacin MIC at 1/8 times of MIC using norfloxacin as substrate incubated for 24 hrs by resazurin based assay (Rvb= 406.37 ug/ml)
# T1 sequence (whole entry): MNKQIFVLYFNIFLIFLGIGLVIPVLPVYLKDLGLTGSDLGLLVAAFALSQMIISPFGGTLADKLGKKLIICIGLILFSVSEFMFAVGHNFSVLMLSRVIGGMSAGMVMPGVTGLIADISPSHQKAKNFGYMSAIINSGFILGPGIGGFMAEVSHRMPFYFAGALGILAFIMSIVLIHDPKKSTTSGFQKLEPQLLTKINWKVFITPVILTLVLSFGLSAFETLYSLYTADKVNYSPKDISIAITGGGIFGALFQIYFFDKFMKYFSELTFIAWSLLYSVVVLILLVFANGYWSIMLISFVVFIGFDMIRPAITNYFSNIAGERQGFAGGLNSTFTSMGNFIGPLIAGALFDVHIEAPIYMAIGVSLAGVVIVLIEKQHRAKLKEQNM
# [13] = molecular target: T1, Quinolone resistance protein NorA (Staphylococcus aureus); assay: Inhibition of NorA efflux pump in Staphylococcus aureus 1199 assessed as EtBr MIC at 1/8 times of MIC using EtBr as substrate incubated for 24 hrs by resazurin based assay (Rvb= 256 ug/ml)
# Staphylococcus aureus [14] = assay: Antibacterial activity against Staphylococcus aureus 1199B expressing NorA efflux protein assessed as bacterial growth inhibition incubated for 24 hrs by resazurin based microdilution assay; type: functional
# Staphylococcus aureus [15] = assay: Antibacterial activity against wild type Staphylococcus aureus 1199 assessed as bacterial growth inhibition incubated for 24 hrs by resazurin based microdilution assay; type: functional
# [16] = molecular target: T1, Quinolone resistance protein NorA (Staphylococcus aureus); assay: Inhibition of NorA efflux pump in Staphylococcus aureus 1199B overexpressing NorA efflux pump assessed as EtBr MIC at 1/8 times of MIC using EtBr as substrate incubated for 24 hrs by resazurin based assay (Rvb= 256 ug/ml)
# [17] = molecular target: T1, Quinolone resistance protein NorA (Staphylococcus aureus); assay: Inhibition of NorA efflux pump in Staphylococcus aureus 1199 assessed as norfloxacin MIC at 1/8 times of MIC using norfloxacin as substrate incubated for 24 hrs by resazurin based assay (Rvb= 32 ug/ml)
# Staphylococcus aureus [18] = assay: Antibacterial activity against tetracycline-resistant Staphylococcus aureus XU212 assessed as bacterial growth inhibition incubated for 18 hrs by MTT assay; type: functional
# Staphylococcus aureus [19] = assay: Antibacterial activity against Staphylococcus aureus ATCC25923 assessed as bacterial growth inhibition incubated for 18 hrs by MTT assay; type: functional
# Staphylococcus aureus [20] = assay: Antibacterial activity against Staphylococcus aureus RN4220 assessed as bacterial growth inhibition incubated for 18 hrs by MTT assay; type: functional
# Staphylococcus aureus [21] = assay: Antibacterial activity against Staphylococcus aureus EMRSA-15 assessed as bacterial growth inhibition incubated for 18 hrs by MTT assay; type: functional
# Staphylococcus aureus [22] = assay: Antibacterial activity against Staphylococcus aureus 1199B overexpressing NorA assessed as bacterial growth inhibition incubated for 18 hrs by MTT assay; type: functional
# [23] = molecular target: T1, Quinolone resistance protein NorA (Staphylococcus aureus); assay: Modulation of norfloxacin-induced inhibition of NorA efflux pump in Staphylococcus aureus 1199B overexpressing NorA efflux pump assessed as reduction in norfloxacin MIC at 1/4 times of MIC by resazurin based assay
# [24] = molecular target: T1, Quinolone resistance protein NorA (Staphylococcus aureus); assay: Modulation of EtBr -induced inhibition of NorA efflux pump in Staphylococcus aureus 1199B overexpressing NorA efflux pump assessed as reduction in EtBr MIC at 1/4 times of MIC using EtBr as substrate by resazurin based assay
structure (smiles),measurement,setting,value
C/C=C/c1ccc(O)c(OC)c1,MIC,Staphylococcus aureus [1],40.3 µg/mL
same,MIC,Staphylococcus aureus [2],32 µg/mL
COc1ccc(/C=C/C(=O)c2ccc(O)cc2)cc1OC,MIC,Staphylococcus aureus [3],100 µg/mL
same,MIC,Staphylococcus aureus [4],100 µg/mL
same,MIC,Staphylococcus aureus [5],100 µg/mL
same,MIC,Staphylococcus aureus [6],100 µg/mL
same,MIC,Staphylococcus aureus [7],100 µg/mL
same,MIC,Staphylococcus aureus [8],100 µg/mL
same,MIC,Staphylococcus aureus [9],100 µg/mL
COc1ccc(/C=C/C(=O)c2ccccc2)cc1OC,MIC,Staphylococcus aureus [3],100 µg/mL
same,MIC,Staphylococcus aureus [4],100 µg/mL
same,MIC,Staphylococcus aureus [5],100 µg/mL
same,MIC,Staphylococcus aureus [6],100 µg/mL
same,MIC,Staphylococcus aureus [7],100 µg/mL
same,MIC,Staphylococcus aureus [8],100 µg/mL
same,MIC,Staphylococcus aureus [9],100 µg/mL
O=C(OC[C@]1(O)[C@H](OC(=O)c2ccccc2)C=C[C@@H](OC(=O)c2ccccc2)[C@@H]1O)c1ccccc1,fractional inhibitory concentration index (FICI),Staphylococcus aureus [10],0.52
same,MIC,Staphylococcus aureus [11],32 µg/mL
CC(C)=CCC1=C(NCCO)C(=O)c2ccccc2C1=O,MIC,[12],80 µg/mL
same,MIC,[13],16 µg/mL
same,MIC,Staphylococcus aureus [14],≥ 1020 µg/mL
same,MIC,Staphylococcus aureus [15],≥ 1020 µg/mL
same,MIC,[16],32 µg/mL
same,MIC,[17],1 µg/mL
CC(C)=CCC1=C(NCCCO)C(=O)c2ccccc2C1=O,MIC,[12],102 µg/mL
same,MIC,[13],32 µg/mL
same,MIC,Staphylococcus aureus [14],≥ 1020 µg/mL
same,MIC,Staphylococcus aureus [15],≥ 1020 µg/mL
same,MIC,[16],64 µg/mL
same,MIC,[17],4 µg/mL
COC(=O)c1cc(/C=C/C(=O)c2cccc(O)c2)ccc1OC,MIC,Staphylococcus aureus [3],100 µg/mL
same,MIC,Staphylococcus aureus [4],100 µg/mL
same,MIC,Staphylococcus aureus [5],100 µg/mL
same,MIC,Staphylococcus aureus [6],100 µg/mL
same,MIC,Staphylococcus aureus [7],100 µg/mL
same,MIC,Staphylococcus aureus [8],100 µg/mL
same,MIC,Staphylococcus aureus [9],100 µg/mL
CC(C)=CC1=C(NCCO)C(=O)c2ccccc2C1=O,MIC,[12],50.8 µg/mL
same,MIC,[13],32 µg/mL
same,MIC,Staphylococcus aureus [14],≥ 1020 µg/mL
same,MIC,Staphylococcus aureus [15],≥ 1020 µg/mL
same,MIC,[16],128 µg/mL
same,MIC,[17],2.51 µg/mL
COc1ccc(-c2cc(=O)c3ccc(O)cc3o2)cc1O,MIC,Staphylococcus aureus [18],32 µg/mL
same,MIC,Staphylococcus aureus [19],32 µg/mL
same,MIC,Staphylococcus aureus [20],32 µg/mL
same,MIC,Staphylococcus aureus [21],32 µg/mL
same,MIC,Staphylococcus aureus [22],32 µg/mL
C/C=C/c1cc(OC)c2c(c1)[C@H](C)[C@@H](c1ccc(OC)c(OC)c1)O2,fractional inhibitory concentration index (FICI),Staphylococcus aureus [10],0.13
same,MIC,Staphylococcus aureus [11],8 µg/mL
C=CC[C@]12C=C(OC)C(=O)[C@H]([C@@H](c3ccc4c(c3)OCO4)[C@@H]1C)[C@@H]2OC(C)=O,fractional inhibitory concentration index (FICI),Staphylococcus aureus [10],0.25
same,MIC,Staphylococcus aureus [11],16 µg/mL
COc1ccc(-c2cc(=O)c3c(O)cc(O[C@@H]4O[C@H](CO[C@@H]5O[C@@H](C)[C@H](O)[C@@H](O)[C@H]5O)[C@@H](O)[C@H](O)[C@H]4O)cc3o2)cc1O,MIC,[23],32 µg/mL
COc1ccc([C@@H]2CC(=O)c3c(O)cc(O)cc3O2)cc1O,MIC,[23],8 µg/mL
same,MIC,[24],16 µg/mL
C[C@@H]1O[C@@H](Oc2c(-c3cc(O)c(O)c(O)c3)oc3cc(O)cc(O)c3c2=O)[C@H](O)[C@H](O)[C@H]1O,MIC,[23],32 µg/mL
C[C@@H]1O[C@@H](Oc2c(-c3ccc(O)c(O)c3)oc3cc(O)cc(O)c3c2=O)[C@H](O)[C@H](O)[C@H]1O,MIC,[23],64 µg/mL
O=C(CCc1ccc(O)cc1)c1c(O)cc(O)cc1O,MIC,[23],32 µg/mL
same,MIC,[24],8 µg/mL

# From ChEMBL document CHEMBL5244281, “Tackling multidrug-resistant Staphylococcus aureus by natural products and their analogues acting as NorA efflux pump inhibitors” (Bioorg Med Chem, 2023)
